# Patent EP1561465A2, “Methods of use of fluoroquinolone compounds against bacteria” (LG Life Sciences, Ltd., priority 1999, dated 2001)
# “And” between values parts separate entries of the source, which are not always exact repeats. Equal values may be shown once. Read-outs that look alike come from different tables or passages of the source.
# Assays:
# Type in all cases: cell-based
# [1] = test system: E. coli; assay: microbe, parasite or virus in culture; details: for MIC50 / MIC: Escherichia coli
# [2] = test system: Streptococcus pneumoniae; assay: MIC by two-fold serial agar dilution, Sensitivity Disk agar-N (Kitasato isolates); details: for MIC90 / MIC / MIC50: Streptococcus pneumoniae; for MIC90: read-out: MIC90; for MIC: read-out: MIC Range; for MIC50: read-out: MIC50
# [3] = test system: Campylobacter jejuni; assay: MIC by agar dilution (NCCLS M7-A4), 5% sheep blood, microaerophilic 48 h; details: Campylobacter jejuni (n=91)
# [4] = test system: Proteus mirabilis; assay: MIC by NCCLS broth microdilution, 1100 Japanese clinical isolates 1997-1998
# [5] = test system: Gram negative anaerobic pathogens and facultative anaerobic pathogens; assay: MIC by agar dilution, Brucella HK agar with 5% laked sheep blood, anaerobic reference strains
smiles,measurement,setting,value
"CO/N=C1\CN(c2nc3c(cc2F)c(=O)c(C(=O)O)cn3C2CC2)CC1CN (racemic) [Gemifloxacin, (R,S)-7-(3-aminomethyl-4-methoxyiminopyrrolidin-1-yl)-1-cyclopropyl-6-fluoro-4-oxo-1,4-dihydro-1,8-naphthyridine-3-carboxylic acid]",MIC90,"[1]; E. coli (13 strains), quinolone-resistant",0.25 µg/mL
same,MIC50,"[1]; E. coli (13 strains), quinolone-resistant, read-out: MIC50",0.031 µg/mL
same,MIC,"[1]; E. coli KU1029, mutant type SP (spontaneous mutant in the DNA gyrase)",0.031 µg/mL
same,MIC,"[1]; E. coli KU1030, mutant type SP",0.031 µg/mL
same,MIC,"[1]; E. coli KU1031, mutant type SP",0.031 µg/mL
same,MIC,"[1]; E. coli KU1032, mutant type SP",0.125 µg/mL
same,MIC,"[1]; E. coli KU1033, mutant type SP",0.016 µg/mL
same,MIC,"[1]; E. coli KU1034, mutant type GA (DNA gyrase A)",0.25 µg/mL
same,MIC,"[1]; E. coli KU1035, mutant type GA (DNA gyrase A)",0.25 µg/mL
same,MIC,"[1]; E. coli KU1036, mutant type GB (DNA gyrase B)",0.031 µg/mL
same,MIC,"[1]; E. coli KU1038, mutant type SP",0.031 µg/mL
same,MIC,"[1]; E. coli KU1039, mutant type SP",0.125 µg/mL
same,MIC,"[1]; E. coli KU1040, mutant type SP",≤ 0.008 µg/mL
same,MIC,"[1]; E. coli KU1041, mutant type SP",0.25 µg/mL
same,MIC,"[1]; E. coli KU1042, mutant type SP",0.063 µg/mL
same,MIC50,[1]; E. coli mutated in the DNA gyrase,0.032 µg/mL
same,more potent than sparfloxacin,"[2]; S. pneumoniae, by MIC90",8 fold
same,more potent than trovafloxacin,"[2]; S. pneumoniae, by MIC90",4 fold
same,MIC90,"[2]; 18 h, Ciprofloxacin-resistant (21), ciprofloxacin MIC ≥8 µg/ml",0.5 µg/mL
same,MIC,"[2]; 18 h, Ciprofloxacin-resistant (21)",0.063 to 0.5 µg/mL
same,MIC,"[2]; 18 h, Ciprofloxacin-susceptible (94)",0.008 to 0.063 µg/mL
same,MIC,"[2]; 18 h, Erythromycin-resistant (37)",0.016 to 0.5 µg/mL
same,MIC,"[2]; 18 h, Minocycline-resistant (37)",0.016 to 0.5 µg/mL
same,MIC,"[2]; 18 h, Penicillin-resistant (19)",0.016 to 0.063 µg/mL
same,MIC50,[2]; Ciprofloxacin-resistant (21),0.25 µg/mL
same,MIC50,[2]; Ciprofloxacin-susceptible (94),0.031 µg/mL
same,MIC90,[2]; Ciprofloxacin-susceptible (94),0.031 µg/mL
same,MIC50,[2]; Erythromycin-resistant (37),0.031 µg/mL
same,MIC90,[2]; Erythromycin-resistant (37),0.063 µg/mL
same,MIC50,[2]; Minocycline-resistant (37),0.031 µg/mL
same,MIC90,[2]; Minocycline-resistant (37),0.063 µg/mL
same,MIC50,[2]; Penicillin-resistant (19),0.016 µg/mL
same,MIC90,[2]; Penicillin-resistant (19),0.063 µg/mL
same,% Susceptible,[3],31.86%
same,MIC50,[3],32 µg/mL
same,MIC90,[3],128 µg/mL
same,MIC Range,[3],0.03 to 128 µg/mL
same,MIC50,[4]; Proteus mirabilis,0.125 µg/mL
same,MIC Range,[4]; Proteus mirabilis (n=30),0.063 to 16 µg/mL
same,MIC90,"[4]; Proteus mirabilis (n=30), read-out: MIC90",0.25 µg/mL
same,MIC,[5],1 µg/mL and 0.125 µg/mL
same,MIC,"[5]; Bacteroides eggerthii, ATCC27754, Bacteroides eggerthii ATCC27754, read-out: MIC",4 µg/mL
same,MIC,"[5]; Bacteroides fragilis, ATCC25285, Bacteroides fragilis ATCC25285, read-out: MIC",0.5 µg/mL
same,MIC,"[5]; Bacteroides fragilis, Bacteroides fragilis GA15562, read-out: MIC",0.25 µg/mL
same,MIC,"[5]; Bacteroides fragilis, Bacteroides fragilis GA-I0558, read-out: MIC",0.5 µg/mL
same,MIC,"[5]; Bacteroides fragilis, Bacteroides fragilis GA-I7955, read-out: MIC",2 µg/mL
same,MIC,"[5]; Bacteroides fragilis, Bacteroides fragilis GAI10150, read-out: MIC",0.5 µg/mL
same,MIC,"[5]; Bacteroides fragilis, Bacteroides fragilis GAI30079, read-out: MIC",8 µg/mL
same,MIC,"[5]; Bacteroides fragilis, Bacteroides fragilis GAI30144, read-out: MIC",2 µg/mL
same,MIC,"[5]; Bacteroides fragilis, NCTC10581, Bacteroides fragilis NCTC10581, read-out: MIC",0.5 µg/mL
same,MIC,"[5]; Bacteroides ovatus, ATCC8483, Bacteroides ovatus ATCC8483, read-out: MIC",1 µg/mL
same,MIC,"[5]; Bacteroides thetaiotaomicron, ATCC29741, Bacteroides thetaiotaomicron ATCC29741, read-out: MIC",2 µg/mL
same,MIC,"[5]; Bacteroides uniformis, ATCC8492, Bacteroides uniformis ATCC8492, read-out: MIC",1 µg/mL
same,MIC,"[5]; Campylobacter gracilis, JCM8538, Campylobacter gracilis JCM8538, read-out: MIC",≤ 0.03 µg/mL
same,MIC,"[5]; Campylobacter ureolyticus, NCTC10941, Bacteroides ureolyticus NCTC10941, read-out: MIC",≤ 0.03 µg/mL
same,MIC,"[5]; Capnocytophaga ochracea, Capnocytophaga ochracea GAI5586, read-out: MIC",≤ 0.03 µg/mL
same,MIC,"[5]; Desullomonas pigra DSM749, read-out: MIC",0.06 µg/mL
same,MIC,"[5]; Fusobacterium necrophorum, ATCC25286, Fusobacterium necrophorum ATCC25286, read-out: MIC",0.25 µg/mL
same,MIC,"[5]; Fusobacterium nucleatum, ATCC25586",0.125 µg/mL
same,MIC,"[5]; Fusobacterium varium, ATCC8501, Fusobacterium varium ATCC8501, read-out: MIC",0.5 µg/mL
same,MIC,"[5]; Hoylesella oralis, ATCC33269, Prevotella oralis ATCC33269, read-out: MIC",2 µg/mL
same,MIC,"[5]; Parabacteroides distasonis, ATCC8503, Bacteroides distasonis ATCC8503, read-out: MIC",0.25 µg/mL
same,MIC,"[5]; Phocaeicola vulgatus, ATCC8482, Bacteroides vulgatus ATCC8482, read-out: MIC",0.25 µg/mL
same,MIC,"[5]; Porphylomonas gingivalis ATCC33277, read-out: MIC",0.06 µg/mL
same,MIC,"[5]; Porphyromonas asaccharolytica, ATCC25260, Porphyromonas asaccharolytica ATCC25260, read-out: MIC",0.06 µg/mL
same,MIC,"[5]; Prevotella bivia, ATCC29303, Prevotella bivia ATCC29303, read-out: MIC",16 µg/mL
same,MIC,"[5]; Prevotella buccaeATCC33574, read-out: MIC",2 µg/mL
same,MIC,"[5]; Prevotella corporis, Prevotella corporis GAI91000, read-out: MIC",1 µg/mL
same,MIC,"[5]; Prevotella heparinolytica, ATCC35895",0.125 µg/mL
